Reference: patent US20250171437A1 (Agios Pharmaceuticals,Inc., priority 2022, published 2025)

Target: T1, human PAH with the R408W mutation (A375 R408W cells) (Homo sapiens, UniProt P00439, R408W)
T1 construct: expressed in transfected cells
T1 sequence (P00439 1-452 R408W): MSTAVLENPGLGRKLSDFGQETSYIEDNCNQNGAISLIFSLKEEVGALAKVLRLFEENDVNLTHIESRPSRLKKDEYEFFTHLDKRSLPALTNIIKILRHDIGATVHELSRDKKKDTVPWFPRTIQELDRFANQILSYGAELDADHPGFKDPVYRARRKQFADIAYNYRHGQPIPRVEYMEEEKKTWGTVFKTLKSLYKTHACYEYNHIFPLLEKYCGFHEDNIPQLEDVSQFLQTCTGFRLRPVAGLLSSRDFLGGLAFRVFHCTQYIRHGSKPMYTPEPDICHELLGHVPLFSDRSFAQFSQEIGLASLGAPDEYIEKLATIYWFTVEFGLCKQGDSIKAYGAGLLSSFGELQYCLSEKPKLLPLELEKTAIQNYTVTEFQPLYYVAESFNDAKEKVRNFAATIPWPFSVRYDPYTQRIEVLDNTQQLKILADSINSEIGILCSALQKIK
Assay: Cell Based Phenylalanine Flux Assay
Settings: A375 R408W cells; 24 hrs with compound, then 20 μM sepiapterin and 800 μM 13C9,15N-Phenylalanine for 4 hours; 13C-Tyrosine by LC-MS; average where tested multiple times
Method in brief: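 Stable R408W PAH A375 cells: 24 h compound pretreatment in duplicate, then 4 h with 800 μM isotope-labelled Phe and 20 μM sepiapterin. Labelled Tyr output by LC-MS; AC50 averaged where repeated.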

Row | Structure (SMILES) | AC50
1 | Cn1nc(C(F)F)cc1C(=O)N1CCc2[nH]cnc2[C@@H]1c1nc2ccccc2o1 [Example 732, (R)-(4-(benzo[d]oxazol-2-yl)-6,7-dihydro-1H-imidazo[4,5-c]pyridin-5(4H)-yl)(3-(difluoromethyl)-1-methyl-1H-pyrazol-5-yl)methanone] | ≥ 5000 nM
2 | Cn1nc(C(F)F)cc1C(=O)N1CCc2[nH]cnc2[C@H]1c1nc2cccc(F)c2o1 [Example 733, (S)-(3-(difluoromethyl)-1-methyl-1H-pyrazol-5-yl)(4-(7-fluorobenzo[d]oxazol-2-yl)-6,7-dihydro-1H-imidazo[4,5-c]pyridin-5(4H)-yl)methanone] | ≤ 500 nM
3 | Cn1nc(C(F)F)cc1C(=O)N1CCc2[nH]cnc2[C@@H]1c1nc2cccc(F)c2o1 [Example 734, (R)-(3-(difluoromethyl)-1-methyl-1H-pyrazol-5-yl)(4-(7-fluorobenzo[d]oxazol-2-yl)-6,7-dihydro-1H-imidazo[4,5-c]pyridin-5(4H)-yl)methanone] | 1000 to 5000 nM
4 | Cc1cccc2nc([C@@H]3c4nc[nH]c4CCN3C(=O)c3cc(C(F)F)nn3C)oc12 [Example 735] | ≤ 500 nM
5 | Cc1cccc2nc([C@H]3c4nc[nH]c4CCN3C(=O)c3cc(C(F)F)nn3C)oc12 [Example 736] | 1000 to 5000 nM
6 | O=C(c1oc(-c2cncnc2)nc1C(F)F)N1CCc2[nH]cnc2[C@@H]1c1nc2cccc(F)c2o1 [Example 741, (R)-(4-(difluoromethyl)-2-(pyrimidin-5-yl)oxazol-5-yl)(4-(7-fluorobenzo[d]oxazol-2-yl)-6,7-dihydro-1H-imidazo[4,5-c]pyridin-5(4H)-yl)methanone] | ≤ 500 nM
7 | O=C(c1oc(-c2cncnc2)nc1C(F)F)N1CCc2[nH]cnc2[C@H]1c1nc2cccc(F)c2o1 [Example 742, (S)-(4-(difluoromethyl)-2-(pyrimidin-5-yl)oxazol-5-yl)(4-(7-fluorobenzo[d]oxazol-2-yl)-6,7-dihydro-1H-imidazo[4,5-c]pyridin-5(4H)-yl)methanone] | ≤ 500 nM
8 | Cc1ccc(F)c2nc([C@@H]3c4nc[nH]c4CCN3C(=O)c3ocnc3C(F)F)oc12 [Example 743, (S)-(4-(difluoromethyl)oxazol-5-yl)(4-(4-fluoro-7-methylbenzo[d]oxazol-2-yl)-6,7-dihydro-1H-imidazo[4,5-c]pyridin-5(4H)-yl)methanone] | ≤ 500 nM
9 | Cc1ccc(F)c2nc([C@H]3c4nc[nH]c4CCN3C(=O)c3ocnc3C(F)F)oc12 [Example 744, (R)-(4-(difluoromethyl)oxazol-5-yl)(4-(4-fluoro-7-methylbenzo[d]oxazol-2-yl)-6,7-dihydro-1H-imidazo[4,5-c]pyridin-5(4H)-yl)methanone] | ≤ 500 nM
10 | Cc1ccc2oc([C@@H]3c4nc[nH]c4CCN3C(=O)c3ncnn3C)nc2c1 [Example 745, (S)-(1-methyl-1H-1,2,4-triazol-5-yl)(4-(5-methylbenzo[d]oxazol-2-yl)-6,7-dihydro-1H-imidazo[4,5-c]pyridin-5(4H)-yl)methanone] | 500 to 1000 nM
11 | Cc1ccc2oc([C@H]3c4nc[nH]c4CCN3C(=O)c3ncnn3C)nc2c1 [Example 746, (R)-(1-methyl-1H-1,2,4-triazol-5-yl)(4-(5-methylbenzo[d]oxazol-2-yl)-6,7-dihydro-1H-imidazo[4,5-c]pyridin-5(4H)-yl)methanone] | 1000 to 5000 nM
12 | Cc1cccc2nc([C@@H]3c4nc[nH]c4CCN3C(=O)c3ccnn3C)oc12 [Example 747, (S)-(1-methyl-1H-pyrazol-5-yl)(4-(7-methylbenzo[d]oxazol-2-yl)-6,7-dihydro-1H-imidazo[4,5-c]pyridin-5(4H)-yl)methanone] | ≤ 500 nM
13 | Cc1cccc2nc([C@H]3c4nc[nH]c4CCN3C(=O)c3ccnn3C)oc12 [Example 748, (R)-(1-methyl-1H-pyrazol-5-yl)(4-(7-methylbenzo[d]oxazol-2-yl)-6,7-dihydro-1H-imidazo[4,5-c]pyridin-5(4H)-yl)methanone] | 1000 to 5000 nM
14 | COc1cccc2nc([C@@H]3c4nc[nH]c4CCN3C(=O)c3ccnn3C)oc12 [Example 749, (S)-(4-(7-methoxybenzo[d]oxazol-2-yl)-6,7-dihydro-1H-imidazo[4,5-c]pyridin-5(4H)-yl)(1-methyl-1H-pyrazol-5-yl)methanone] | ≤ 500 nM
15 | COc1cccc2nc([C@H]3c4nc[nH]c4CCN3C(=O)c3ccnn3C)oc12 [Example 750, (R)-(4-(7-methoxybenzo[d]oxazol-2-yl)-6,7-dihydro-1H-imidazo[4,5-c]pyridin-5(4H)-yl)(1-methyl-1H-pyrazol-5-yl)methanone] | 1000 to 5000 nM
16 | CC(C)n1nccc1C(=O)N1CCc2[nH]cnc2[C@@H]1c1nc2ccccc2o1 [Example 751, (R)-(4-(benzo[d]oxazol-2-yl)-6,7-dihydro-1H-imidazo[4,5-c]pyridin-5(4H)-yl)(1-isopropyl-1H-pyrazol-5-yl)methanone] | 1000 to 5000 nM
17 | CC(C)n1nccc1C(=O)N1CCc2[nH]cnc2[C@H]1c1nc2ccccc2o1 [Example 752, (S)-(4-(benzo[d]oxazol-2-yl)-6,7-dihydro-1H-imidazo[4,5-c]pyridin-5(4H)-yl)(1-isopropyl-1H-pyrazol-5-yl)methanone] | ≤ 500 nM

Now from value to molecule:

Row | AC50 | Structure (SMILES)
18 | ≤ 500 nM | Cc1ccc2oc([C@@H]3c4nc[nH]c4CCN3C(=O)c3oc(-c4ccccn4)nc3C(F)F)nc2c1 [Example 737, (S)-(4-(difluoromethyl)-2-(pyridin-2-yl)oxazol-5-yl)(4-(5-methylbenzo[d]oxazol-2-yl)-6,7-dihydro-1H-imidazo[4,5-c]pyridin-5(4H)-yl)methanone]
19 | 1000 to 5000 nM | Cc1ccc2oc([C@H]3c4nc[nH]c4CCN3C(=O)c3oc(-c4ccccn4)nc3C(F)F)nc2c1 [Example 738, (R)-(4-(difluoromethyl)-2-(pyridin-2-yl)oxazol-5-yl)(4-(5-methylbenzo[d]oxazol-2-yl)-6,7-dihydro-1H-imidazo[4,5-c]pyridin-5(4H)-yl)methanone]
20 | 500 to 1000 nM | O=C(c1oc(-c2ccccn2)nc1C(F)F)N1CCc2[nH]cnc2[C@@H]1c1nc2ccccc2o1 [Example 739, (R)-(4-(benzo[d]oxazol-2-yl)-6,7-dihydro-1H-imidazo[4,5-c]pyridin-5(4H)-yl)(4-(difluoromethyl)-2-(pyridin-2-yl)oxazol-5-yl)methanone]
21 | ≤ 500 nM | O=C(c1oc(-c2ccccn2)nc1C(F)F)N1CCc2[nH]cnc2[C@H]1c1nc2ccccc2o1 [Example 740, (S)-(4-(benzo[d]oxazol-2-yl)-6,7-dihydro-1H-imidazo[4,5-c]pyridin-5(4H)-yl)(4-(difluoromethyl)-2-(pyridin-2-yl)oxazol-5-yl)methanone]
22 | ≤ 500 nM | CC(C)(C)c1nc(C(F)F)c(C(=O)N2CCc3[nH]cnc3[C@H]2c2nc3cc(F)ccc3o2)o1 [Example 753, (S)-(2-(tert-butyl)-4-(difluoromethyl)oxazol-5-yl)(4-(5-fluorobenzo[d]oxazol-2-yl)-6,7-dihydro-1H-imidazo[4,5-c]pyridin-5(4H)-yl)methanone]
23 | 1000 to 5000 nM | CC(C)(C)c1nc(C(F)F)c(C(=O)N2CCc3[nH]cnc3[C@@H]2c2nc3cc(F)ccc3o2)o1 [Example 754, (R)-(2-(tert-butyl)-4-(difluoromethyl)oxazol-5-yl)(4-(5-fluorobenzo[d]oxazol-2-yl)-6,7-dihydro-1H-imidazo[4,5-c]pyridin-5(4H)-yl)methanone]
24 | ≤ 500 nM | Cc1ccc2oc([C@@H]3c4nc[nH]c4CCN3C(=O)c3oc(-c4ccn(C)n4)nc3C(F)F)nc2c1 [Example 755, (S)-(4-(difluoromethyl)-2-(1-methyl-1H-pyrazol-3-yl)oxazol-5-yl)(4-(5-methylbenzo[d]oxazol-2-yl)-6,7-dihydro-1H-imidazo[4,5-c]pyridin-5(4H)-yl)methanone]
25 | 1000 to 5000 nM | Cc1ccc2oc([C@H]3c4nc[nH]c4CCN3C(=O)c3oc(-c4ccn(C)n4)nc3C(F)F)nc2c1 [Example 756, (R)-(4-(difluoromethyl)-2-(1-methyl-1H-pyrazol-3-yl)oxazol-5-yl)(4-(5-methylbenzo[d]oxazol-2-yl)-6,7-dihydro-1H-imidazo[4,5-c]pyridin-5(4H)-yl)methanone]
26 | 1000 to 5000 nM | Cc1ccc2oc([C@H]3c4nc[nH]c4CCN3C(=O)c3oc(-c4cncn4C)nc3C(F)F)nc2c1 [Example 757, (R)-(4-(difluoromethyl)-2-(1-methyl-1H-imidazol-5-yl)oxazol-5-yl)(4-(5-methylbenzo[d]oxazol-2-yl)-6,7-dihydro-1H-imidazo[4,5-c]pyridin-5(4H)-yl)methanone]
27 | ≤ 500 nM | Cc1ccc2oc([C@@H]3c4nc[nH]c4CCN3C(=O)c3oc(-c4cncn4C)nc3C(F)F)nc2c1 [Example 758, (S)-(4-(difluoromethyl)-2-(1-methyl-1H-imidazol-5-yl)oxazol-5-yl)(4-(5-methylbenzo[d]oxazol-2-yl)-6,7-dihydro-1H-imidazo[4,5-c]pyridin-5(4H)-yl)methanone]
28 | 1000 to 5000 nM | Cn1cc(-c2nc(C(F)F)c(C(=O)N3CCc4[nH]cnc4[C@@H]3c3nc4ccccc4o3)o2)cn1 [Example 759, (R)-(4-(benzo[d]oxazol-2-yl)-6,7-dihydro-1H-imidazo[4,5-c]pyridin-5(4H)-yl)(4-(difluoromethyl)-2-(1-methyl-1H-pyrazol-4-yl)oxazol-5-yl)methanone]
